Experiments:
MDA-MB-231 [1] = details: incubation time: 72 h
Experimental: (§1)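 MDA-MB-231 breast cancer cells were transfected with siBRCA1 or non-targeting siControl, then seeded 24 h later at 4000 cells/well in 384-well plates holding 198 drugs at 5 concentrations. Viability was read by CellTiter-Blue after 72 h at 37 °C. Dose-response curves were fitted in Dotmatics to give IC50 and a drug sensitivity score (DSS: area under the curve relative to the area between the 10% threshold and 100% inhibition, normalised by the log of the top response). The dose range is not stated. IC50 values of 8333.3 or 4166.7 nM mark no response (top dose), and 0.8333 nM is the lower limit.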

MDA-MB-231 [2] = assay: drug sensitivity score (DSS); higher = more sensitive; extreme values may be limits of the assay; details: incubation time: 72 h
Experimental: as §1

[3] = siRNA: siControl (non-targeting)

| IC50 of cell viability (MDA-MB-231 [1]; siRNA: siBRCA1) | IC50 of cell viability (MDA-MB-231 [1]; [3]) | Compound | drug sensitivity score (MDA-MB-231 [2]; siRNA: siBRCA1) | drug sensitivity score (MDA-MB-231 [2]; [3]) |
| --- | --- | --- | --- | --- |
| 2.46 nM | 2.21 nM | CC(=O)Nc1cccc(-n2c(=O)n(C3CC3)c(=O)c3c(Nc4ccc(I)cc4F)n(C)c(=O)c(C)c32)c1 | 22 | 22.5 |
| 125 nM | 248 nM | CC(=O)c1c(C)c2cnc(Nc3ccc(N4CCNCC4)cn3)nc2n(C2CCCC2)c1=O | 6.11 | 9.43 |
| 2720 nM | 3770 nM | CN(C)C[C@@H]1CCn2cc(c3ccccc32)C2=C(C(=O)NC2=O)c2cn(c3ccccc23)CCO1 | 5.43 | 4.41 |
| 3770 nM | 4020 nM | CN1CCC(COc2cnc(-c3cccc(Cn4nc(-c5cccc(C#N)c5)ccc4=O)c3)nc2)CC1 | 3.92 | 3.58 |
| > 4170 nM | > 4170 nM | CNCc1ccc(-c2[nH]c3cc(F)cc4c3c2CCNC4=O)cc1 | 0 | 0 |
| 125 nM | 129 nM | COc1ccc(-c2cc3c(C)nc(N)nc3n([C@H]3CC[C@H](OCCO)CC3)c2=O)cn1 | 18.9 | 18.6 |
| > 4170 nM | 1190 nM | C[C@@]1(C(=O)Nc2ccc(F)nc2)CCCN1c1nc(Nc2cc(C3CC3)n[nH]2)c2cccn2n1 | 3.5 | 7.43 |
| 1380 nM | > 4170 nM | Cc1cc(Nc2cc(CN3CCOCC3)c3nc(C)c(Cc4ccc(Cl)cc4F)n3n2)n[nH]1 | 6.15 | 3.18 |
| 132 nM | 50 nM | O=C(NC[C@H](O)CO)c1ccncc1Nc1ccc(I)cc1F | 16 | 17.4 |
| > 4170 nM | > 4170 nM | CC1CCN(C(=O)CC#N)CC1N(C)c1ncnc2[nH]ccc12 (stereo in doubt) [Tasocitinib] | 0 | 0 |
| 1230 nM | 794 nM | COc1cc2c(cc1O)CC[C@@H]1[C@@H]2CC[C@]2(C)[C@@H](O)CC[C@@H]12 [2-methoxyestradiol] | 6.82 | 8.29 |
| 253 nM | 308 nM | COc1ccc(S(=O)(=O)Nc2cccnc2Nc2ccc(O)cc2)cc1 [ABT-751] | 13.9 | 13.5 |
| > 4170 nM | > 4170 nM | CC(C)(C)c1cc(NC(=O)Nc2ccc(-c3cn4c(n3)sc3cc(OCCN5CCOCC5)ccc34)cc2)no1 [AC220] | 0 | 0.0185 |
| 267 nM | 173 nM | O=C(Nc1c[nH]nc1-c1nc2ccc(CN3CCOCC3)cc2[nH]1)NC1CC1 [AT9283] | 16.5 | 18.6 |
| > 4170 nM | > 4170 nM | COc1cc(OC2CCN(C)CC2)ccc1Nc1ncc2c(n1)n(C1CCCC1)c(=O)n2C [AZ 3146] | 0 | 0 |
| 45.9 nM | 88.8 nM | COc1ccc(-c2ccc3c(N4CCOC[C@@H]4C)nc(N4CCOC[C@@H]4C)nc3n2)cc1CO [AZD8055] | 19.1 | 18.2 |
| 242 nM | 582 nM | NC(=O)Nc1cc(-c2cccc(F)c2)sc1C(=O)N[C@H]1CCCNC1 [AZD 7762] | 17.4 | 13.7 |
| > 4170 nM | > 4170 nM | C[C@]12CC[C@H](O)CC1=CC[C@@H]1[C@@H]2CC[C@]2(C)C(c3cccnc3)=CC[C@@H]12 [Abiraterone] | 0 | 0 |
| 3350 nM | 1680 nM | CN(C)C/C=C/C(=O)Nc1cc2c(Nc3ccc(F)c(Cl)c3)ncnc2cc1O[C@H]1CCOC1 [Afatinib] | 4.43 | 8.65 |

| IC50 of cell viability (MDA-MB-231 [1]; siRNA: siBRCA1) | IC50 of cell viability (MDA-MB-231 [1]; [3]) | Compound | drug sensitivity score (MDA-MB-231 [2]; siRNA: siBRCA1) | drug sensitivity score (MDA-MB-231 [2]; [3]) |
| --- | --- | --- | --- | --- |
| > 4170 nM | > 4170 nM | Oc1ncnc2[nH]ncc12 [Allopurinol] | 0 | 0 |
| > 4170 nM | > 4170 nM | CN(C)c1nc(N(C)C)nc(N(C)C)n1 [Altretamine] | 0 | 0 |
| 128 nM | 75.7 nM | CO[C@H]1/C=C\C=C(/C)C(=O)NC2=CC(=O)C(NCCN(C)C)=C(C[C@@H](C)C[C@H](OC)[C@H](O)[C@@H](C)/C=C(\C)[C@@H]1OC(N)=O)C2=O [Alvespimycin] | 20 | 22.7 |
| 181 nM | 150 nM | CN1CC[C@H](c2c(O)cc(O)c3c(=O)cc(-c4ccccc4Cl)oc23)[C@H](O)C1 [Alvocidib] | 18.8 | 20.2 |
| > 4170 nM | > 4170 nM | NCC(=O)CCC(=O)O [Aminolevulinic acid] | 0 | 0 |
| 1790 nM | 2160 nM | CN(C)CCN1C(=O)c2cccc3cc(N)cc(c23)C1=O [Amonafide] | 8.98 | 6.72 |
| > 4170 nM | > 4170 nM | O=C1CN2Cc3c(ccc(Cl)c3Cl)N=C2N1 [Anagrelide] | 0 | 0 |
| > 4170 nM | > 4170 nM | CC(C)(C#N)c1cc(Cn2cncn2)cc(C(C)(C)C#N)c1 [Anastrozole] | 0 | 0 |
| > 4170 nM | > 4170 nM | CNC(=O)c1ccccc1Sc1ccc2c(/C=C/c3ccccn3)n[nH]c2c1 [Axitinib] | 0 | 0 |
| > 4170 nM | > 4170 nM | Nc1ncn([C@@H]2O[C@H](CO)[C@@H](O)[C@H]2O)c(=O)n1 [Azacitidine] | 0 | 0 |
| 900 nM | 813 nM | CNC(=O)c1cc(Oc2ccc(NC(=O)Nc3ccc(Cl)c(C(F)(F)F)c3)c(F)c2)ccn1 [BAY 73-4506] | 4.52 | 2.71 |
| 5.67 nM | 3.08 nM | CC[C@@H]1C(=O)N(C)c2cnc(Nc3ccc(C(=O)NC4CCN(C)CC4)cc3OC)nc2N1C1CCCC1 [BI 2536] | 23.3 | 24.9 |
| 869 nM | 1290 nM | COc1c(C)cnc(Cn2cnc3c(Cl)nc(N)nc32)c1C [BIIB021] | 8.95 | 9.35 |
| 757 nM | 668 nM | O=C(/C=C/c1cccc(S(=O)(=O)Nc2ccccc2)c1)NO [Belinostat] | 12.2 | 12.9 |
| > 4170 nM | > 4170 nM | C=C(c1ccc(C(=O)O)cc1)c1cc2c(cc1C)C(C)(C)CCC2(C)C [Bexarotene] | 0 | 0 |
| > 4170 nM | > 4170 nM | CCNC(=O)CCC/C=C\C[C@@H]1[C@@H](/C=C/[C@@H](O)CCc2ccccc2)[C@H](O)C[C@@H]1O [Bimatoprost] | 0 | 0 |
| 6.91 nM | 18.6 nM | CC(C)C[C@H](NC(=O)[C@H](Cc1ccccc1)NC(=O)c1cnccn1)B(O)O [Bortezomib] | 37.9 | 32.2 |
| > 4170 nM | > 4170 nM | CS(=O)(=O)OCCCCOS(C)(=O)=O [Busulfan] | 0 | 0 |

| Compound | IC50 of cell viability (MDA-MB-231 [1]; siRNA: siBRCA1) | IC50 of cell viability (MDA-MB-231 [1]; [3]) | drug sensitivity score (MDA-MB-231 [2]; siRNA: siBRCA1) | drug sensitivity score (MDA-MB-231 [2]; [3]) |
| --- | --- | --- | --- | --- |
| NCCCNCCSP(=O)(O)O [Amifostine] | > 4170 nM | > 4170 nM | 0 | 0 |
| CCC1(c2ccc(N)cc2)CCC(=O)NC1=O (centres undefined) [Aminoglutethimide] | > 4170 nM | > 4170 nM | 0 | 0 |
| Cc1c(N)nc([C@H](CC(N)=O)NC[C@H](N)C(N)=O)nc1C(=O)N[C@H](C(=O)N[C@H](C)[C@@H](O)[C@H](C)C(=O)N[C@H](C(=O)NCCc1nc(-c2nc(C(=O)NCCC[S+](C)C)cs2)cs1)[C@@H](C)O)[C@@H](OC1OC(CO)C(O)C(O)C1OC1OC(CO)C(O)C(OC(N)=O)C1O)c1cnc[nH]1 (some centres undefined) [Bleomycin] | > 4170 nM | 125 nM | 0 | 3.28 |
| CCC/C=C/C=C/C(=O)O[C@H]1/C(=C/C(=O)OC)C[C@H]2C[C@H]([C@@H](C)O)OC(=O)C[C@H](O)C[C@@H]3C[C@H](OC(C)=O)C(C)(C)[C@](O)(C[C@@H]4C/C(=C/C(=O)OC)C[C@H](/C=C/C(C)(C)[C@]1(O)O2)O4)O3 [Bryostatin 1] | 83.3 nM | 83.3 nM | 0 | 0 |

Source: the supplement of paper PMC4649846
